The term IC50 denotes the concentration that gives 50% inhibition. The low end stands for greater potency, the high end for weaker potency.

This assay deals with T1, TGF-beta receptor type-1 (Homo sapiens, UniProt P36897).
T1 sequence (P36897 whole entry): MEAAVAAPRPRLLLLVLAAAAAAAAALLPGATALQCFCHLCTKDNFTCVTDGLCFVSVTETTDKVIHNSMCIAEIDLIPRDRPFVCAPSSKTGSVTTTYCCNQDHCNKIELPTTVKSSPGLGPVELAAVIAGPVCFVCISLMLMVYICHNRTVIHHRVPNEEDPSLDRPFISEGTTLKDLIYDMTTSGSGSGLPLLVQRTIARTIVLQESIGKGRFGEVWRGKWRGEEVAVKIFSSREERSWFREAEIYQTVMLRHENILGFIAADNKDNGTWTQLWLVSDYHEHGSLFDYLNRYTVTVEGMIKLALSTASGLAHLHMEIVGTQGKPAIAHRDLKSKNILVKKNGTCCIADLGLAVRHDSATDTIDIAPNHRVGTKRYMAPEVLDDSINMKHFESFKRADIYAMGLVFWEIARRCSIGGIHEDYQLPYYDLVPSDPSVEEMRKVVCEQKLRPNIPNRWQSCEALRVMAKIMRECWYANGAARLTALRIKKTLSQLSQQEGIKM
Kind of assay: In Vitro Assay. As for the experimental part: The enzymatic activity of compounds of the present invention was monitored measuring the formation of ADP using the ADP-GLO Kinases assay. Following the incubation of the purified enzyme, a substrate and ATP, the produced ADP was converted into ATP, which in turn was converted into light by Ultra-Glo Luciferase. The luminescent signal positively correlated with ADP amount and kinase activity. Briefly, the kinase reaction was performed by incubating 2.6 nM of the purified, commercially available human ALK5 (recombinant TGF 31 N-term GST-tagged, 80-end), a final concentration of TGFβ1 peptide 94.5 μM (Promega, T36-58) and ultra-pure ATP (Promega V915B). The ATP concentration was set at the Km value (concentration of substrate which permits the enzyme to achieve half maximal velocity (Vmax)) of ALK5 (5 μM). All reactions/incubations were performed at 25° C. Compound and ALK5 kinase were mixed and incubated for 15 mins. Reactions were initiated by addition of ATP at a final concentration in the assay of […]. After an incubation of 150 min, the reaction was stopped, and ADP production detected with ADP-Glo kit according to manufacturer's indications. The assay was performed in 384-well format and was validated using a selection of reference compounds that was tested in 11 point concentration-response curve.
`CN(C)CCC(=O)Nc1cncc(-c2cc(-c3cc(Cl)ccc3F)nc3c2OCCN3)c1` [US20240116948, Example 8]: the IC50 was under 1 nM.
Next, `O=C(CCN1CCCC1)Nc1cncc(-c2cc(-c3cc(Cl)ccc3F)nc3c2OCCN3)c1` [US20240116948, Example 12]: under 1 nM.
For the compound `CN(C)CCCOc1cncc(-c2cc(-c3cc(Cl)ccc3F)nc3c2OCCN3)c1` [US20240116948, Example 27], the IC50 is under 1 nM.
Next, `CNCCCC(=O)Nc1cncc(-c2cc(-c3cc(Cl)ccc3F)nc3c2OCCN3)c1` [US20240116948, Example 31]: under 1 nM; `CN1CCC(Oc2cncc(-c3cc(-c4cc(Cl)ccc4F)nc4c3OCCN4)c2)CC1` [US20240116948, Example 41]: under 1 nM; `CN(CCO)CCC(=O)Nc1cncc(-c2cc(-c3cc(Cl)ccc3F)nc3c2OCCN3)c1` [US20240116948, Example 44]: under 1 nM.

These data come from BindingDB's records for patent US20240116948 (Chiesi Farmaceutici, 2024).
